The record followed here is patent US8114892B2, “Methods and compositions for the treatment of Parkinson's Disease” (The McLean Hospital Corporation, priority 2006, dated 2012).

Entries after “also recorded” stand apart in the source; their conditions may differ.

Common to all, as to format: cell-based
For assay [1], the target named is T1, Nurr1 (Homo sapiens, UniProt P43354).
T1 construct: effector plasmid containing the Nurr1 gene; expressed in transfected cells; host or cells: SK-N-BE(2)C human neuroblastoma cells, transient transfection
T1 sequence (P43354 whole entry): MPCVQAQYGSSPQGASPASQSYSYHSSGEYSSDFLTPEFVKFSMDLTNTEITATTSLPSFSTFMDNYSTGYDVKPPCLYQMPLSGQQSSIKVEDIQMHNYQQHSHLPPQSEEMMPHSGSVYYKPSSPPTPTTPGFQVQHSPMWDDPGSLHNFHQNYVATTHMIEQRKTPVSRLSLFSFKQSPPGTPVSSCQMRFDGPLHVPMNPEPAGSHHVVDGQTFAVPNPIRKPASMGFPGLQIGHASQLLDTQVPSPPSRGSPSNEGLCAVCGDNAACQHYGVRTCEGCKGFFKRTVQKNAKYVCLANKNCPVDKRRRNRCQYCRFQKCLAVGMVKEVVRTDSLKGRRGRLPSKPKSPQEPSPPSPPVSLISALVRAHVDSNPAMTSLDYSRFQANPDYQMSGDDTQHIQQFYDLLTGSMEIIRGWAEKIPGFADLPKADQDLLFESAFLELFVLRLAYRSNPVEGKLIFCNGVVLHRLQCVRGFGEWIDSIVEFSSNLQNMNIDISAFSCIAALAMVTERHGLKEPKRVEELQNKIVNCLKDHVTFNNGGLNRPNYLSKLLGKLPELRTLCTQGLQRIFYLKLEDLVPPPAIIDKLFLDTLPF
The assay is described as follows: Primary screening: Nurr1 effector with 2.6-TH promoter firefly luciferase reporter, transient transfection in SK-N-BE(2)C cells. The conditions noted are these: incubation for eighteen hours; for Hit identification in repeated primary screening (luciferase activity): pcDNA-Nurr1 construct. The procedure:
FIG. 5A is a chart showing preliminary screening data with a small chemical library. Transiently expressed Nurr1 activity in SK-N-BE(2)C cells was measured by luciferase activity with 2.6-TH promoter after incubation with each compound for eighteen hours. […] Each column has eight different chemical compounds. FIG. 5B is a chart showing further preliminary screening data with a small chemical library. Transiently expressed Nurr1 activity in SK-N-BE(2)C cells was measured by luciferase activity with 2.6-TH promoter after incubation with each compound for eighteen hours. […] Each column has eight different chemical compounds.
Transiently expressed Nurr1 activity in SK-N-BE(2)C cells was measured by luciferase activity after incubation of each compound with the pcDNA-Nurr1 construct for eighteen hours.
A cell-based system exploiting Nurr1's activation of TH was created in order to develop an assay for identification of Nurr1-activating compounds. […] In addition, a transient transfection was selected, rather than using stable cell-line transfection, to favor the maximum responsiveness of compounds to the reporter gene in order to detect low-affinity hit chemicals in the first screening. Another parameter considered was the selection of short-sized natural TH promoters with all essential NBRE (Nurr1-binding)-like motifs rather than one specific kind of NBRE-motif, based on the assumption that the natural promoter generates closer biological screening condition than artificially copied promoter and the false positive chemicals due to the interaction of other unrelated transcription factors can be easily ruled out by the effective secondary screening method.
To explore this new Nurr1 cell based assay system, several combinations of variable parameters, including effector gene promoter, internal control gene promoter, TH promoter size, promoter of internal control gene, transient transfection condition, serum concentration, and DMSO effect were tried. […]

In assay [2] the target is T2, GAL4 DBD-Nurr1 LBD (Homo sapiens, UniProt P43354).
T2 construct: expressed in transfected cells; host or cells: SK-N-BE(2)C cells, transient transfection
T2 sequence (P43354 360-595 limits assumed): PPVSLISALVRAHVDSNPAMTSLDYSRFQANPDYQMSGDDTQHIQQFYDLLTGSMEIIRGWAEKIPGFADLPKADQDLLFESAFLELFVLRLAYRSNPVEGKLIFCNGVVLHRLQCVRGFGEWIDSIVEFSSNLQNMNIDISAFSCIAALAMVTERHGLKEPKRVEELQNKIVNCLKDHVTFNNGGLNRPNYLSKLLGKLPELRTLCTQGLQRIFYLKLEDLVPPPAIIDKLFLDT
T2 sequence (P04386 1-147 partner limits assumed): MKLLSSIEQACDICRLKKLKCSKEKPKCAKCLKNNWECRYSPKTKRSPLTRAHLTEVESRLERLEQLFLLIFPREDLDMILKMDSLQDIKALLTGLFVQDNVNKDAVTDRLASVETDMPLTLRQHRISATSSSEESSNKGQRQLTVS
The assay is described as follows: Secondary screening: GAL4-DBD construct fused with Nurr1-LBD, luciferase reporter in SK-N-BE(2)C cells. To be noted: incubation for eighteen hours. The protocol:
FIG. 7 includes a chart showing secondary screening data with primary hit chemicals. Transiently expressed Nurr1 activity in SK-N-BE(2)C cells was measured by luciferase activity after incubation of each compound with GAL4-DBD construct fused with Nurr1-LBD for eighteen hours. […] Also shown is a schematic representation of the GAL4-DBD-Nurr1-LBD fusion construct activating the firefly luciferase reporter gene.
As a secondary screening system, GAL4 DNA binding domain (DBD) constructs were used, which separately fused whole Nurr1, Nurr1-ligand binding domain (LBD), or Nurr1-DNA binding domain to the yeast GAL4 DBD. […] 6-MP, regulating Nurr1 through a region in the amino terminus, was used as a negative control in this experiment.

Assay [3] concerns mouse ES cell-derived neurons (ES cell lines D3 and J1). Put plainly: Dopaminergic neuronal differentiation of ES cells in vitro (5-stage method), TH+/Tuj1+ immunostaining. To be noted: 2 uM added at day five of the ES-derived neuronal stage for four days. The text has this: FIG. 10A is a pair of photos showing embryonic stem (ES) cell-derived neurons subjected to an indirect immunohistochemical assay (TH+/Tuj1+ staining). ES-derived neurons were immunolabeled with anti-β-tubulin III and anti-TH. Superposition of both proteins under a fluorescent microscope is shown in white. DMSO was used as a control.
For in vitro differentiation of ES cells, we used the 5-stage method, which is known in the art (see, e.g., Lee et al., Nat. Biotechnol. 18:675-679, 2000) and is useful for distinguishing each stage of developmental progression of ES cells. The mouse blastocyst-derived ES cell lines D3 and J1 were propagated and maintained according to methods well-known in the art (see, e.g., Deacon et al., Exp. Neurol., 149:28-41, 1998, and Chung et al., Stem Cells, 20:139-145, 2002). The mouse ES cells were generated as embryoid bodies (EBs) on nonadherent bacterial dishes for four days in growth medium consisting of DMEM supplemented with 2 mM L-glutamine, 0.001% β-mercaptoethanol, 1× non-essential amino acids (all from Invitrogen), and 10% FBS (Hyclone). The EBs were then plated onto adhesive tissue culture dish surfaces. After 24 hours in culture, selection of nestin-positive cells was performed in serum-free ITSFn medium. […]

Turning to `CCN(CC)CCCC(C)Nc1ccnc2cc(Cl)ccc12` (stereo not shown) [Chloroquine diphosphate, chloroquine diphosphate], the “Luciferase activity compared to control with DMSO, preliminary screening” value in assay [1] (2.6-TH promoter) was “apparent increase in luciferase activity”.

For `O=C(OCC(O)CO)c1ccccc1Nc1ccnc2cc(Cl)ccc12` (stereo not shown) [Glafenine (11D), glafenine], the “Hit identification in repeated primary screening (luciferase activity)” value in assay [1] is “hit candidates”. The “Hit identification in secondary screening (luciferase activity)” value in assay [2] is recorded as “identified as hit candidate compounds; also recorded: hit candidates”.

As for `CCN(CC)Cc1cc(Nc2ccnc3cc(Cl)ccc23)ccc1O` [Amodiaquine (4E), amodiaquine], the “Hit identification in repeated primary screening (luciferase activity)” value in assay [1] is on record as “hit candidates”. In addition, the “Hit identification in secondary screening (luciferase activity)” value in assay [2] (listed as Amodiaquine) is reported as “identified as hit candidate compounds”; in assay [2] (listed as amodiaquine) it was “hit candidates”. Moreover, the “Number of TH+ cells during in vitro ES cell differentiation, in comparison with the control DMSO” value in assay [3] is listed as “increased the number of TH+ cells”.
